According to PubChem BioAssay AID1963856 (Molecular Pharmacology Branch, DTP, NCI, 2024):

Tested on: LG0567-F671-PDC KRAS tumor spheroid viability
Assay: Anticancer human tumor LG0567-F671-PDC patient-derived lung adenocarcinoma cell line growth inhibition [KRAS2]
Details: spheroids with HUVEC and MSC; for IC50: curve of first compound; for viability, T/C: stronger effect = lower value
Summary of the method: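 KRAS-mutant tumor cells were grown as spheroids with HUVEC endothelial cells and human MSCs as stroma. Targeted agents were tested alone and with KRAS pathway inhibitors. Doses started at or near clinical Cmax, or 10 microM, descending half-log.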

[1] = second compound 0.0316 µM, first compound 0.01 µM
[2] = second compound 0.0316 µM, first compound 0.0316 µM
[3] = second compound 0.0316 µM, first compound 0.1 µM
[4] = second compound 0.0316 µM, first compound 0.316 µM
[5] = second compound 0.0316 µM, first compound 1 µM
[6] = second compound 0.0316 µM, first compound 3.16 µM
[7] = second compound 0.1 µM, first compound 0.01 µM
[8] = second compound 0.1 µM, first compound 0.0316 µM
[9] = second compound 0.1 µM, first compound 0.1 µM
[10] = second compound 0.1 µM, first compound 0.316 µM
[11] = second compound 0.1 µM, first compound 1 µM
[12] = second compound 0.1 µM, first compound 3.16 µM
[13] = second compound 0.316 µM, first compound 0.01 µM
[14] = second compound 0.316 µM, first compound 0.0316 µM
[15] = second compound 0.316 µM, first compound 0.1 µM
[16] = second compound 0.316 µM, first compound 0.316 µM
[17] = second compound 0.316 µM, first compound 1 µM
[18] = second compound 0.316 µM, first compound 3.16 µM
[19] = second compound 1 µM, first compound 0.01 µM
[20] = second compound 1 µM, first compound 0.0316 µM
[21] = second compound 1 µM, first compound 0.1 µM
[22] = second compound 1 µM, first compound 0.316 µM
[23] = second compound 1 µM, first compound 1 µM
[24] = second compound 1 µM, first compound 3.16 µM
[25] = second compound 3.16 µM, first compound 0.01 µM
[26] = second compound 3.16 µM, first compound 0.0316 µM
[27] = second compound 3.16 µM, first compound 0.1 µM
[28] = second compound 3.16 µM, first compound 0.316 µM
[29] = second compound 3.16 µM, first compound 1 µM
[30] = second compound 3.16 µM, first compound 3.16 µM
[31] = second compound 0.0316 µM, first compound 10 µM
[32] = second compound 0.1 µM, first compound 10 µM
[33] = second compound 0.316 µM, first compound 10 µM
[34] = second compound 1 µM, first compound 10 µM
[35] = second compound 3.16 µM, first compound 10 µM
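Further: drug exposure lasted seven days after spheroids formed for three days.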
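Wherever viability, T/C is given: 100% = DMSO vehicle control viability.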

Structure (SMILES)	IC50 (second compound 0.0316 µM)	IC50 (second compound 0.1 µM)	IC50 (second compound 0.316 µM)	IC50 (second compound 1 µM)	IC50 (second compound 3.16 µM)	viability, T/C [2]	viability, T/C [3]	viability, T/C [4]	viability, T/C [5]	viability, T/C [8]	viability, T/C [9]	viability, T/C [10]	viability, T/C [11]	viability, T/C [14]	viability, T/C [15]	viability, T/C [16]	viability, T/C [17]	viability, T/C [20]	viability, T/C [21]	viability, T/C [22]	also measured
CC1COCCN1c1cc(-c2ccnn2C)c2ccnc(-c3ccn[nH]3)c2n1 (stereo not given) + C=CC(=O)N1CCN(c2nc(OCC3CCCN3C)nc3c2CCN(c2cccc4cccc(C)c24)C3)CC1CC#N	< 10 nM	< 10 nM	< 10 nM	< 10 nM	< 10 nM	23.5%	17.1%	15.6%	14.1%	21.2%	17.4%	12.7%	10.8%	19.4%	15.6%	11.3%	12.1%	21.4%	16.7%	13.9%	viability, T/C [1]: 33.7%; viability, T/C [6]: 12.7%; viability, T/C [7]: 26.9%; viability, T/C [12]: 10.4%; viability, T/C [13]: 24.7%; viability, T/C [18]: 10.7%; viability, T/C [19]: 26.8%; viability, T/C [23]: 13.9%; viability, T/C [24]: 13.7%; viability, T/C [25]: 26.2%; viability, T/C [26]: 22.6%; viability, T/C [27]: 20.8%; viability, T/C [28]: 17.3%; viability, T/C [29]: 13.3%; viability, T/C [30]: 12.2%
CC1OCC2(CCN(c3cnc(Sc4ccnc(N)c4Cl)c(N)n3)CC2)C1N (stereo not given) + C=CC(=O)N1CCN(c2nc(OCC3CCCN3C)nc3c2CCN(c2cccc4cccc(C)c24)C3)CC1CC#N	< 31.6 nM	< 31.6 nM	< 31.6 nM	< 31.6 nM	< 31.6 nM	28.3%	18.1%	16.3%	11.3%	24.7%	14.6%	13.5%	7.14%	26.3%	17.8%	12.3%	10%	20.1%	15.6%	11.5%	viability, T/C [6]: 5.27%; viability, T/C [31]: 4.04%; viability, T/C [12]: 3.83%; viability, T/C [32]: 4.19%; viability, T/C [18]: 5.4%; viability, T/C [33]: 3.32%; viability, T/C [23]: 7.73%; viability, T/C [24]: 5.45%; viability, T/C [34]: 6.7%; viability, T/C [26]: 29.1%; viability, T/C [27]: 21.1%; viability, T/C [28]: 17.2%; viability, T/C [29]: 8.14%; viability, T/C [30]: 5.63%; viability, T/C [35]: 4.39%
CCN1CCN(Cc2ccc(Nc3ncc(F)c(-c4cc(F)c5nc(C)n(C(C)C)c5c4)n3)nc2)CC1 + C=CC(=O)N1CCN(c2nc(OCC3CCCN3C)nc3c2CCN(c2cccc4cccc(C)c24)C3)CC1CC#N	< 3.16 nM	< 3.16 nM	< 3.16 nM	< 3.16 nM	< 3.16 nM	22.2%	26.6%	27.6%	31.4%	18.6%	20%	22.1%	25.3%	16.7%	22.5%	23.7%	27.7%	22.1%	21.8%	26%	viability, T/C (second compound 0.0316 µM, first compound 0.00316 µM): 36.1%; viability, T/C [1]: 32.4%; viability, T/C (second compound 0.1 µM, first compound 0.00316 µM): 32.8%; viability, T/C [7]: 24.7%; viability, T/C (second compound 0.316 µM, first compound 0.00316 µM): 23.9%; viability, T/C [13]: 25.3%; viability, T/C (second compound 1 µM, first compound 0.00316 µM): 27.7%; viability, T/C [19]: 20.6%; viability, T/C [23]: 33.5%; viability, T/C (second compound 3.16 µM, first compound 0.00316 µM): 28%; viability, T/C [25]: 30.7%; viability, T/C [26]: 25.6%; viability, T/C [27]: 29%; viability, T/C [28]: 31.4%; viability, T/C [29]: 29.4%
CCNC(=O)CC1N=C(c2ccc(Cl)cc2)c2cc(OC)ccc2-n2c(C)nnc21 (stereo not given) + C=CC(=O)N1CCN(c2nc(OCC3CCCN3C)nc3c2CCN(c2cccc4cccc(C)c24)C3)CC1CC#N	51.2 nM	< 31.6 nM	2000 nM	< 31.6 nM	< 31.6 nM	48.4%	52.5%	36.7%	25.7%	46.5%	41.5%	25.6%	19.4%	99.2%	109%	72.8%	60.9%	35.7%	32.3%	24.6%	viability, T/C [6]: 17.2%; viability, T/C [31]: 16.6%; viability, T/C [12]: 15.3%; viability, T/C [32]: 12.9%; viability, T/C [18]: 46.8%; viability, T/C [33]: 40.2%; viability, T/C [23]: 17.5%; viability, T/C [24]: 14.6%; viability, T/C [34]: 12.8%; viability, T/C [26]: 41.3%; viability, T/C [27]: 32.7%; viability, T/C [28]: 22.6%; viability, T/C [29]: 13.3%; viability, T/C [30]: 9.07%; viability, T/C [35]: 7.07%
Cn1nccc1Nc1nccc(-c2cc3c(s2)C(C)(C)N(CCN2CCOCC2)C3=O)n1 + C=CC(=O)N1CCN(c2nc(OCC3CCCN3C)nc3c2CCN(c2cccc4cccc(C)c24)C3)CC1CC#N	< 31.6 nM	< 31.6 nM	< 31.6 nM	< 31.6 nM	< 31.6 nM	34.5%	28.7%	39.7%	19.2%	26.8%	31.8%	28%	23.3%	33.2%	25.8%	21.2%	35.5%	29.6%	26.9%	33.1%	viability, T/C [6]: 19.9%; viability, T/C [31]: 19.7%; viability, T/C [12]: 17.8%; viability, T/C [32]: 21.1%; viability, T/C [18]: 16.8%; viability, T/C [33]: 19.1%; viability, T/C [23]: 26.5%; viability, T/C [24]: 15.3%; viability, T/C [34]: 19.4%; viability, T/C [26]: 29.3%; viability, T/C [27]: 29.1%; viability, T/C [28]: 28.1%; viability, T/C [29]: 23.2%; viability, T/C [30]: 21.7%; viability, T/C [35]: 24.4%
